Results from EP0908457B1, “3-(1,2-benzisothiazol- and isoxazol-5-Y1)-2,4(1H,3H)-pyrimidinedione or thione and 3-(1,2-benzisothiazol- and isoxazol-5-y1)-4(3H)-pyrimidinone or thione herbicidal agents” (BASF AKTIENGESELLSCHAFT, priority 1997, dated 1999).

Columns and labels:
Assay type in all cases: in vivo
[1] = tested on: Cyperus serotinus, Rottb.; assay: Preemergence weed control under flooded paddy conditions, CYPSE (Flatsedge); details: preemergence, rated three to four weeks after treatment
[2] = tested on: Monochoria vaginalis, Presl.; assay: Preemergence weed control under flooded paddy conditions, MOOVA (Monochoria); details: preemergence, flooded paddy, rated three to four weeks after treatment
[3] = tested on: Echinochloa oryzoides (Ard.) Fritsch.; assay: Preemergence weed control under flooded paddy conditions, ECHORC (Watergrass (Calif.)); details: preemergence, flooded paddy, rated three to four weeks after treatment
Cyperus iria = assay: Preemergence weed control under flooded paddy conditions, CYPIR (Rice Flatsedge); details: preemergence, flooded paddy, rated three to four weeks after treatment
Sagittaria pygmaea, L. = assay: Preemergence weed control under flooded paddy conditions, SAGPY (Arrowhead (Pygmaea)); details: preemergence, flooded paddy, rated three to four weeks after treatment
Note: meaning of each grade not given here.

SMILES	herbicidal effect rating, CYPSE ([1]; Rate 0.0320 kg/ha)	herbicidal effect rating, CYPSE ([1]; Rate 0.1250 kg/ha)	herbicidal effect rating, CYPSE ([1]; Rate 0.2500 kg/ha)	herbicidal effect rating, MOOVA ([2]; Rate 0.0320 kg/ha)	herbicidal effect rating, MOOVA ([2]; Rate 0.0620 kg/ha)	herbicidal effect rating, MOOVA ([2]; Rate 0.1250 kg/ha)	herbicidal effect rating, MOOVA ([2]; Rate 0.2500 kg/ha)	herbicidal effect rating, ECHORC ([3]; Rate 0.0320 kg/ha)	herbicidal effect rating, ECHORC ([3]; Rate 0.0620 kg/ha)	herbicidal effect rating, ECHORC ([3]; Rate 0.1250 kg/ha)	herbicidal effect rating, ECHORC ([3]; Rate 0.2500 kg/ha)	herbicidal effect rating, CYPIR (Cyperus iria; Rate 0.0320 kg/ha)	herbicidal effect rating, CYPIR (Cyperus iria; Rate 0.0620 kg/ha)	herbicidal effect rating, CYPIR (Cyperus iria; Rate 0.1250 kg/ha)	herbicidal effect rating, CYPIR (Cyperus iria; Rate 0.2500 kg/ha)	herbicidal effect rating, SAGPY (Sagittaria pygmaea, L.; Rate 0.0320 kg/ha)	herbicidal effect rating, SAGPY (Sagittaria pygmaea, L.; Rate 0.0620 kg/ha)	herbicidal effect rating, SAGPY (Sagittaria pygmaea, L.; Rate 0.1250 kg/ha)	herbicidal effect rating, SAGPY (Sagittaria pygmaea, L.; Rate 0.2500 kg/ha)	herbicidal effect rating, CYPSE ([1]; Rate 0.0620 kg/ha)	also measured
Cn1c(C(F)(F)F)cc(=O)n(-c2ccc3snc(COC(=O)NCc4ccccc4)c3c2)c1=O [Example 390, 2,4(1H,3H)-Pyrimidinedione, 3-[3-(hydroxymethyl)-1,2-benzisothiazol-5-yl]-1-methyl-6-(trifluoromethyl)-, benzylcarbamate (ester)]	2.5	4.0	9.0	9.0	9.0	9.0	9.0	5.5	7.0	8.0	9.0	1.0	4.0	7.0	9.0	2.5	5.5	8.0	8.0		herbicidal effect rating, CYPSE ([1]; Rate 0.5000 kg/ha): 6.0; herbicidal effect rating, MOOVA ([2]; Rate 0.5000 kg/ha): 9.0; herbicidal effect rating, ECHORC ([3]; Rate 0.5000 kg/ha): 9.0; herbicidal effect rating, CYPIR (Cyperus iria; Rate 0.5000 kg/ha): 9.0; herbicidal effect rating, SAGPY (Sagittaria pygmaea, L.; Rate 0.5000 kg/ha): 9.0
Cn1c(C(F)(F)F)cc(=O)n(-c2ccc3snc(CSc4ccccc4)c3c2)c1=O [Example 392, 2,4(1H,3H)-Pyrimidinedione, 1-methyl-3-{3-[(phenylthio)methyl]-1,2-benzisothiazol-5-yl}-6-(trifluoromethyl)-]	0.0	0.0	0.0	6.0	7.0	7.0	9.0	5.0	7.0	9.0	9.0	0.0	0.0	3.0	7.0	0.0	0.0	0.0	0.0	0.0	
Cn1c(C(F)(F)F)cc(=O)n(-c2ccc3snc(CS(=O)(=O)c4ccccc4)c3c2)c1=O [Example 393, 2,4(1H,3H)-Pyrimidinedione, 1-methyl-3-{3-[(phenylsulfonyl)methyl]-1,2-benzisothiazol-5-yl}-6-(trifluoromethyl)-]	0.0	3.0	6.0	7.0	8.0	8.0	9.0	2.0	4.0	4.0	9.0	0.0	3.0	3.0	6.0	0.0		3.0	4.0	0.0	
Cn1c(C(F)(F)F)cc(=O)n(-c2ccc3snc(C[S+]([O-])c4ccccc4)c3c2)c1=O (centres unmarked) [Example 394, 2,4(1H,3H)-Pyrimidinedione, 1-methyl-3-{3-[(phenylsulfinyl)methyl]-1,2-benzisothiazol-5-yl}-6-(trifluoromethyl)-]	0.0	0.0	2.0	8.0	8.0	9.0	9.0	0.0	0.0	4.0	6.0	0.0	3.0	5.0	7.0		0.0	0.0	0.0	0.0	
CCC(C)S(=O)(=O)NC(=O)c1nsc2ccc(-n3c(=O)cc(C(F)(F)F)n(C)c3=O)cc12 (centres unmarked) [Example 395, 1,2-Benzisothiazole-3-carboxamide, 5-[3,6-dihydro-3-methyl-2,6-dioxo-4-(trifluoromethyl)-1(2H)-pyrimidinyl]-N-[(1-methylpropyl)sulfonyl]-]	0.0	0.0	0.0	9.0	9.0	9.0	9.0	0.0	0.0	2.0	3.0	0.0	0.0	0.0	3.0	0.0	2.0	4.0	5.0	0.0	
Cn1c(C(F)(F)F)cc(=O)n(-c2ccc3snc(C(C)(C)C(=O)OCc4ccccc4)c3c2)c1=O [Example 396, 1,2-Benzisothiazole-3-acetic acid, 5-[3,6-dihydro-3-methyl-2,6-dioxo-4-(trifluoromethyl)-1(2H)-pyrimidinyl]-alpha,alpha-dimethyl-, benzyl ester]	0.0	0.0	6.0	9.0	9.0	9.0	9.0	9.0	9.0	9.0	9.0	7.0	8.0	9.0	9.0	7.0	7.0	8.0	8.0	0.0	
